Measured values reported in BindingDB's records for doi:10.1016/j.bmc.2009.10.004 (Kinki University, 2010).

Biological target: Beta-secretase 1 (Homo sapiens, UniProt P56817)
Assay: Competitive inhibition of human recombinant BACE1 by Lineweaver-Burke plot analysis

Sequence of Beta-secretase 1 (P56817 whole entry): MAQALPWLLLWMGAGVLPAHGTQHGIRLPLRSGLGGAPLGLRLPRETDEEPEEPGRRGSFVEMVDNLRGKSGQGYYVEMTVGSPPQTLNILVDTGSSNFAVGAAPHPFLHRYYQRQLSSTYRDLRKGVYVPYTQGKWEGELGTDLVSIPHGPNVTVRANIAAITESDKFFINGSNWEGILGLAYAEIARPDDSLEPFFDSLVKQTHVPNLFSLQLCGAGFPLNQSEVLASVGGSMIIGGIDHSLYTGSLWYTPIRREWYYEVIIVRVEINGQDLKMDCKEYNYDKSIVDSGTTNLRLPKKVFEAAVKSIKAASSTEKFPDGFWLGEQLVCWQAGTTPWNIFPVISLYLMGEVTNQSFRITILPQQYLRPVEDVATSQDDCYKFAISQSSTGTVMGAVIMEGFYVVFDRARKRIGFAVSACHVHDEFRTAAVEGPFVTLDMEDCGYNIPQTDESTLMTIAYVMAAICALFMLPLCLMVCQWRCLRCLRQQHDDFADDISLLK

`COC(=O)CCc1c(O)cc2occc2c1OCC=C(C)C` [6,7-Furano-5-prenyloxy hydrocoumaric acid methyl ester] gave a Ki of 11.3 µM.
